Test results published in patent US20230157302A1, “METHODS FOR […] MYCOTOXIN PRODUCTION” (Institut National de Recherche Pour L'Agriculture, …, priority 2020, published 2023).
Entries after “also recorded” stand apart in the source; their conditions may differ.

Assays:
[1] = tested on: Fusarium culmorum and Fusarium graminearum; settings: cited from earlier work
[2] = tested on: F. graminearum CBS 185.32; format: cell-based, Fusarium graminearum
[3] = tested on: F. graminearum CBS 185.32; format: cell-based, Fusarium graminearum; remark: listed apart in the source

Substance | fungal growth / dry fungal biomass (antifungal activity) [2] | 15-ADON production [3] | DON production [3] | other results
DefMT6: tick defensin described in Tonk et al., 2015 (GFGCPLNQGACHNHCRSIKRRGGYCSGIIKQTCTCYRK; DefMT6) [reference compound] | – | – | – | antibacterial and antifungal activity [1]: antibacterial and antifungal activity
C(CH3)GNFLKRTCRICVKK [TickCore3-CH3-1 Ox] | no effect on fungal growth at any of the concentrations tested | – | – | 15-ADON levels [3]: significant reduction; DON levels [3]: significant reduction
C G N F L K R T C I C V K T (CGNFLKRTCICVKT) [TickCore3-K14T] | strong antifungal activity only at 50 μM | – | – | –
GGYYCPFRQDKCHRHCRSFGRKAGYCGNFLKRTCICVKK (DefMT3) [tick defensin, synthesized by SPPS] | – | shows inhibitory activity | shows inhibitory activity | antibacterial and antifungal activity [1]: antibacterial and antifungal activity
C G N F L K R T C I C V K K (CGNFLKRTCICVKK) [TickCore3, conserved linear gamma core moiety of the tick defensin DefMT3] | significantly inhibited fungal growth at all the concentrations tested | non-detectable levels; also recorded: residual levels | non-detectable levels | inhibition of TCTB mycotoxin production (DON and 15-ADON together) [3]: inhibits the production of category B trichothecenes
C G N F L K R T C I C V T K (CGNFLKRTCICVTK) [TickCore3-K13T] | strong antifungal activity only at 50 μM | – | – | –
CGNFLKRTC(CH3)ICVKK [TickCore3-CH3-2 Ox] | no effect on fungal growth at any of the concentrations tested | did not change significantly | significant increase | –
C G N F L K T T C I C V K K (CGNFLKTTCICVKK) [TickCore3-R7T] | strong antifungal activity only at 50 μM | – | – | –
C(CH3)GNFLKRTC(CH3)IC(CH3)VKK [TickCore3-CH3-123] | – | significantly less | significantly less | inhibition of TCTB mycotoxin production (DON and 15-ADON together) [3]: little effect on the inhibitory effect affecting TCTB production
C G N F L T R T C I C V K K (CGNFLTRTCICVKK) [TickCore3-K6T] | no antifungal activity below the concentration at 50 μM | – | – | inhibition of TCTB mycotoxin production (DON and 15-ADON together) [3]: reduction in the ability to inhibit TCTB production is particularly pronounced
CGNFLKRTCIC(CH3)VKK [TickCore3-CH3-3 Ox] | no effect on fungal growth at any of the concentrations tested | significant increase | significant increase | –
